Laboratory results reported in patent US4049497A (priority 1974, dated 1977).
“And” between values parts separate entries of the source, which are not always exact repeats. Identical values can stand only once.

Legend:
[1] = test system: Staphylococcus aureus Smith; experiment: Minimum inhibitory concentration on nutrient agar plates, 37° C., 17 hours; type: cell-based
[2] = test system: Aeromonas salmonecida ATCC 14174; experiment: as above; type: cell-based
[3] = test system: Vibrio anguillarum NCBM 6; experiment: as above; type: cell-based
Saccharomyces cerevisiae = experiment: Minimum inhibitory concentration on nutrient agar plates with 1% glucose, 27° C., 40 hours; type: cell-based
[4] = test system: Escherichia coli JR66/W677; experiment: Minimum inhibitory concentration on nutrient agar plates, 37° C., 17 hours; type: cell-based
[5] = test system: Staphylococcus aureus 209P; experiment: as above; type: cell-based
Aspergillus niger = experiment: Minimum inhibitory concentration on nutrient agar plates with 1% glucose, 27° C., 40 hours; type: cell-based
Escherichia coli W677 = experiment: Minimum inhibitory concentration on nutrient agar plates, 37° C., 17 hours; type: cell-based
[6] = test system: Bacillus subtilis PCI 219; experiment: as above; type: cell-based
Xanthomonas citri = experiment: as above; type: cell-based
Escherichia coli K-12 = experiment: as above; type: cell-based
[7] = Partition between n-butanol and water; conditions: pH value of 2 to 7
[8] = Acute toxicity, intraperitoneal injection in mice; conditions: for toxicity: animal and man, as shown by LD50 in mice; for LD50: mice, intraperitoneal, 0.25-0.5% in 10% dimethylsulfoxide-water
[9] = test system: various bacteria and fungi; experiment: Antibacterial and antifungal spectrum (overall); type: cell-based
[10] = Stability of activity in 50% aqueous ethanol, room temperature, 16 hours; storage and methanol stability; conditions: for stability in 50% aqueous ethanol: 50% aqueous ethanol of pH 2.5; for activity reduced to: 50% aqueous ethanol of pH 2.5, room temperature, 16 hours; for stability as solid powder: cold and dark place
[11] = test system: Pseudomonas aeruginosa No. 12; experiment: Minimum inhibitory concentration on nutrient agar plates, 37° C., 17 hours; type: cell-based
Piricularia oryzae = type: cell-based
Xanthomonas oryzae = type: cell-based; conditions: 37° C., 17 hours
leukemia L-1210 cells = experiment: Chemotherapeutic effect against leukemia L-1210 in mice (survival); type: in vivo, mice (CDF 1 strain); conditions: i.p. once daily for 10 days
Candida albicans 3147 = experiment: Minimum inhibitory concentration on nutrient agar plates with 1% glucose, 27° C., 40 hours; type: cell-based
[12] = test system: Staphylococcus aureus or Escherichia coli; experiment: Standard cup-plate assay of potency
[13] = test system: Klebsiella pneumoniae PCI 602; experiment: Minimum inhibitory concentration on nutrient agar plates, 37° C., 17 hours; type: cell-based
Escherichia coli NIHJ = experiment: as above; type: cell-based
[14] = isolated colorless powder (Examples 3-6)

## COc1cc2c(cc1O)N=C[C@@H]1CC[C@H](O)N1C2=O [neothramycin A]
[1]
  Minimum Inhibitory Concentration: 50 Mcg./ml.
[2]
  Minimum Inhibitory Concentration: 25 Mcg./ml.
[3]
  Minimum Inhibitory Concentration: 50 Mcg./ml.
Saccharomyces cerevisiae
  Minimum Inhibitory Concentration: 50 Mcg./ml.
[4]
  Minimum Inhibitory Concentration: 100 Mcg./ml.
[5]
  Minimum Inhibitory Concentration: > 100 Mcg./ml.
Aspergillus niger
  Minimum Inhibitory Concentration: 100 Mcg./ml.
Escherichia coli W677
  Minimum Inhibitory Concentration: 50 Mcg./ml.
[6]
  Minimum Inhibitory Concentration: 100 Mcg./ml.
Xanthomonas citri
  Minimum Inhibitory Concentration: > 100 Mcg./ml.
Escherichia coli K-12
  Minimum Inhibitory Concentration: 100 Mcg./ml.
[7]
  partition coefficient in n-butanol/water: greater than 5
[8]
  toxicity: low toxicity
  LD50: 20 to 30 mg/kg
[9]
  antibacterial and antifungal activity: low antibacterial and antifungal activity
[10]
  stability in 50% aqueous ethanol: unstable
  activity reduced to: 25%
  stability as solid powder: stable for a long period of time
[11]
  Minimum Inhibitory Concentration: > 100 Mcg./ml.
Piricularia oryzae
  Minimum Inhibitory Concentration: 50 Mcg./ml.
Xanthomonas oryzae
  Minimum Inhibitory Concentration: 50 Mcg./ml.
Leukemia L-1210 cells
  effects on the survival ratio: highly favorable effects
Candida albicans 3147
  Minimum Inhibitory Concentration: > 100 Mcg./ml.
[12]; [14]
  potency: 1000 u./mg.
[12]; pure neothramycin A from Example 3 as authentic sample
  potency: 1000 units per mg
[13]
  Minimum Inhibitory Concentration: 50 Mcg./ml.
Escherichia coli NIHJ
  Minimum Inhibitory Concentration: 100 Mcg./ml.

## COc1cc2c(cc1O)N=C[C@@H]1CC[C@@H](O)N1C2=O [neothramycin B]
[1]
  Minimum Inhibitory Concentration: 100 Mcg./ml.
[2]
  Minimum Inhibitory Concentration: 50 Mcg./ml.
[3]
  Minimum Inhibitory Concentration: 100 Mcg./ml.
Saccharomyces cerevisiae
  Minimum Inhibitory Concentration: > 100 Mcg./ml.
[4]
  Minimum Inhibitory Concentration: > 100 Mcg./ml.
[5]
  Minimum Inhibitory Concentration: > 100 Mcg./ml.
Aspergillus niger
  Minimum Inhibitory Concentration: > 100 Mcg./ml.
Escherichia coli W677
  Minimum Inhibitory Concentration: 100 Mcg./ml.
[6]
  Minimum Inhibitory Concentration: > 100 Mcg./ml.
Xanthomonas citri
  Minimum Inhibitory Concentration: > 100 Mcg./ml.
Escherichia coli K-12
  Minimum Inhibitory Concentration: 100 Mcg./ml.
[7]
  partition coefficient in n-butanol/water: greater than 5
[8]
  toxicity: low toxicity
  LD50: 20 to 30 mg/kg
[9]
  antibacterial and antifungal activity: low antibacterial and antifungal activity
[10]
  stability in 50% aqueous ethanol: unstable
  activity reduced to: 22%
  stability as solid powder: stable for a long period of time
[11]
  Minimum Inhibitory Concentration: > 100 Mcg./ml.
Piricularia oryzae
  Minimum Inhibitory Concentration: > 100 Mcg./ml.
Xanthomonas oryzae
  Minimum Inhibitory Concentration: 100 Mcg./ml.
Leukemia L-1210 cells
  effects on the survival ratio: highly favorable effects
Candida albicans 3147
  Minimum Inhibitory Concentration: > 100 Mcg./ml.
[12]; [14]
  potency: 620 u./mg. and 835 u./mg.
[13]
  Minimum Inhibitory Concentration: 100 Mcg./ml.
Escherichia coli NIHJ
  Minimum Inhibitory Concentration: 100 Mcg./ml.
